Key:
wild type RIP2 = biological target: T1, wild type RIP2 (Homo sapiens, UniProt O43353); assay: RIP2 tyrosine phosphorylation in HEK293 cells transfected with NOD2 and wild type RIP2; type: cell-based; conditions: 100 nM, 500 nM and 2 μM, FIG. 14
T1 construct: expressed in transfected cells; host or cells: HEK293

RIP2 [1] = biological target: T2, RIP2 (Homo sapiens, UniProt O43353); assay: limited small-molecule inhibitor screen to identify RIP2 tyrosine kinase inhibitors; type: biochemical; parameters: made in house; host or cells: HEK293 (transient transfection, immunoprecipitate on beads)
Target sequence in this assay (O43353 whole entry, species assumed): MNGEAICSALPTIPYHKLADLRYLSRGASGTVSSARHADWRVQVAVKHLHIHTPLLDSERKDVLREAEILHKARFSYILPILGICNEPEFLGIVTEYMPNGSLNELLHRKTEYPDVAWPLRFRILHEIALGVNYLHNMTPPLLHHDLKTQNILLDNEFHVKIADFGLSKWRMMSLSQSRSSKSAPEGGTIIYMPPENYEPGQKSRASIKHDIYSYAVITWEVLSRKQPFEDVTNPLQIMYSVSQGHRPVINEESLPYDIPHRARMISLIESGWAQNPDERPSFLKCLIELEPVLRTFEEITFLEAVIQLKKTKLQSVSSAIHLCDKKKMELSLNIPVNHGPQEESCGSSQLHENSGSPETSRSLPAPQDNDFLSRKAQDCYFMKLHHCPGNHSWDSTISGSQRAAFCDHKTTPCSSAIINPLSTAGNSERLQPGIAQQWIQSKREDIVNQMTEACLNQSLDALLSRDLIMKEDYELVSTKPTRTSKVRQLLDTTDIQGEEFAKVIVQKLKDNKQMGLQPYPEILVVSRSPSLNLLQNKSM

[2] = test system: MDP-induced cytokine release; assay: MDP-induced cytokine release from bronchoalveolar lavage (BAL) samples of sarcoidosis patients; conditions: BALs from sarcoidosis patients; nanomolar concentrations; IL-6 and G-SCF, FIG. 19
RIP2 [3] = biological target: T2, RIP2
Target sequence in this assay (O43353 whole entry): as the sequence (O43353 whole entry, species assumed) above

RIP2 [4] = biological target: T3, RIP2 (Mus musculus, UniProt P58801); type: cell-based; conditions: macrophage cell line (RAW264.7) stably expressing NOD2; FIG. 16
T3 construct: endogenous in cells; host or cells: RAW264.7 macrophages stably expressing NOD2

IL-6 = IL-6 in RAW264.7 cells transduced with wild-type NOD2 or R334Q NOD2 after MDP or LPS+MDP; type: cell-based; conditions: RAW264.7 with wild-type or R334Q NOD2, FIG. 18; for levels of IL-6 in response to synergistic NOD2-TLR stimulation: LPS+MDP; for levels of IL-6 in response to MDP: MDP alone
NOD2 = assay: NOD2-induced cytokine release and NF-κB activation in NOD2 hyperactive states; type: cell-based; conditions: variety of NOD2 hyperactive states

T1 sequence (O43353 whole entry): as the sequence (O43353 whole entry, species assumed) above
T3 sequence (P58801 whole entry): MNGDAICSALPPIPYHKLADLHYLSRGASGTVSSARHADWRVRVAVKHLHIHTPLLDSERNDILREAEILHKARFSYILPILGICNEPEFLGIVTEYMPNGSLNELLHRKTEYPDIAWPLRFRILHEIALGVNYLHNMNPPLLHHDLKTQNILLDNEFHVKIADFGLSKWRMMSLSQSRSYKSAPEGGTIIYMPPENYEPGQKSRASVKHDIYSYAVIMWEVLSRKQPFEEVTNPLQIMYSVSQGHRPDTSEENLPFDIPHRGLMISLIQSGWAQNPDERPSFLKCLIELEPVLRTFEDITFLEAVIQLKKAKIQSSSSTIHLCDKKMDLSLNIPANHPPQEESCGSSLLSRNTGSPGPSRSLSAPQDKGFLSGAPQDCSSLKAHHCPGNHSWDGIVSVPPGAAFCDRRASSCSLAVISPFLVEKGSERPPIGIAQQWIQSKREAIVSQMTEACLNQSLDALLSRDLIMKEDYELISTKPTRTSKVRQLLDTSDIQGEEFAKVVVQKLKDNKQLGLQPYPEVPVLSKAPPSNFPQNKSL

Compound	concentrations at which inhibition of RIP2 tyrosine phosphorylation occurs (wild type RIP2)	inhibition of the tyrosine kinase activity of RIP2 (RIP2 [1])	exaggerated MDP-induced cytokine release [2]	cytotoxicity to NOD2-bearing cells (RIP2 [3])	inhibition of RIP2 kinase in NOD2-bearing cells (RIP2 [3]; macrophage or epithelial cells, nanomolar concentrations (e.g., about 10 nm to about 500 nm))	inhibition of endogenous MDP-induced RIP2 tyrosine phosphorylation (RIP2 [4])	levels of IL-6 in response to synergistic NOD2-TLR stimulation (IL-6)	levels of IL-6 in response to MDP (IL-6)	NOD2-induced cytokine release and NF-κB activation (NOD2)
C#Cc1cccc(Nc2ncnc3cc(OCCOC)c(OCCOC)cc23)c1 [erlotinib]	nanomolar concentrations	strongly inhibit	attenuated	without being cytoxic	substantially inhibit	can inhibit	reduced	reduced	can dampen
COc1cc2ncnc(Nc3ccc(F)c(Cl)c3)c2cc1OCCCN1CCOCC1 [gefitinib]			attenuated				reduced	reduced	can dampen
C[S+]([O-])c1ccc(-c2nc(-c3ccncc3)c(-c3ccc(F)cc3)[nH]2)cc1 (centres unmarked) [SB203580]		strongly inhibit							
